The source of these data is US11827628B2, “Compositions and methods for inhibition of the JAK pathway” (Rigel Pharmaceuticals, Inc., priority 2005, dated 2023).

For the assay, the system named is Primary human T-cells. Nature of the assay: Primary Human T-Cell Proliferation Assay Stimulated with IL-2 (CellTiter-Glo). Type of assay: cell-based. The note with it: Homo sapiens, T-cell, primary human T-cells stimulated with IL-2, proliferation; read-out: IC50, Example 42. The essentials:
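IC50 derived from CellTiter-Glo ATP signal after 72 hours of IL-2-driven proliferation at 37° C. Cells: primary human T-cells from blood, stimulated beforehand 3-4 days on anti-CD3/anti-CD28 with IL-2, then rested from IL-2 before compound exposure in duplicate; IL-2-free wells served as unstimulated control.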
For orientation: Cellular ATP, detected with luciferase, serves as a proxy for viable cell number.
What is called IC50 is the concentration needed to halve the response being measured. As to `COc1ccc(CN2C(=O)C(C)Sc3ccc(Nc4nc(Nc5ccc(S(N)(=O)=O)cc5)ncc4F)cc32)cc1` (racemic) [Compound V-10, (R/S)-N2-(4-Aminosulphonylphenyl)-5-fluoro-N4-[2-methyl-3-oxo-4-(4-methoxybenzyl)-benzo[1,4]thiazin-6-yl]-2,4-pyrimidinediamine], the IC50 is 8270 nM.
Regarding `N#CCN1C(=O)COc2ccc(Nc3nc(Nc4ccc(S(N)(=O)=O)cc4)ncc3F)cc21` [Compound V-6, N2-(4-Aminosulphonylphenyl)-5-fluoro-N4-(3-oxo-4-cyanomethyl-benz[1,4]oxazin-6-yl]-2,4-pyrimidinediamine], the concentration for half-maximal inhibition (IC50) turned out to be 70.8 nM.
Next, `N#CCN1C(=O)CSc2ccc(Nc3nc(Nc4ccc(S(N)(=O)=O)cc4)ncc3F)cc21` [Compound V-11, N2-(4-Aminosulphonylphenyl)-5-fluoro-N4-(3-oxo-4-cyanomethyl-benzo[1,4]thiazin-6-yl)-2,4-pyrimidinediamine]: 795 nM; `NS(=O)(=O)c1ccc(Nc2ncc(F)c(NCCc3ccc(-n4ccnc4)cc3)n2)cc1` [III-90, N2-(4-Aminosulfonylphenyl)-5-fluoro-N4-[4-(1-imidazolyl)phenethyl]-2,4-pyrimidinediamine]: 468 nM.
To `NS(=O)(=O)c1cccc(Nc2ncc(F)c(Nc3cccc(-c4cnco4)c3)n2)c1` [IV-1, N2-(3-Aminosulfonylphenyl)-5-fluoro-N4-[3-(1,3-oxazol-5-yl)phenyl]-2,4-pyrimidinediamine] belongs 287 nM; to `Cc1ccc(Nc2ncc(F)c(Nc3cccc(-c4cnco4)c3)n2)cc1S(N)(=O)=O` [IV-2, N2-(3-Aminosulfonyl-4-methylphenyl)-5-fluoro-N4-[3-(1,3-oxazol-5-yl)phenyl]-2,4-pyrimidinediamine], 362 nM.
To `Cc1ccc(Nc2ncc(F)c(Nc3ccc(-c4cnco4)cc3)n2)cc1S(N)(=O)=O` [IV-6, N2-(3-Aminosulfonyl-4-methylphenyl)-5-fluoro-N4-[4-(1,3-oxazol-5-yl)phenyl]-2,4-pyrimidinediamine] belongs 132 nM.
Turning to `C#CCn1ccc2cc(Nc3nc(Nc4cccc(S(N)(=O)=O)c4)ncc3F)ccc21` [IX-2, N2-(3-Aminosulfonylphenyl)-5-fluoro-N4-[1-(propyn-3-yl)indol-5-yl]-2,4-pyrimidinediamine], the IC50 worked out at 282 nM.
Take `Cc1ccc(Nc2ncc(F)c(Nc3ccc4c(CC#N)c[nH]c4c3)n2)cc1S(N)(=O)=O` [IX-11, N2-(3-Aminosulfonyl-4-methylphenyl)-N4-(3-cyanomethyl-1H-indol-6-yl)-5-fluoro-2,4-pyrimidinediamine]: the IC50 worked out at 215 nM.
In the case of `N#CCc1c[nH]c2cc(Nc3nc(Nc4cccc(S(N)(=O)=O)c4)ncc3F)ccc12` [IX-12, N2-(3-Aminosulfonylphenyl)-N4-(3-cyanomethyl-1H-indol-6-yl)-5-fluoro-2,4-pyrimidinediamine], the IC50 turned out to be 117 nM.
Consider `N#CCc1c[nH]c2c(Nc3nc(Nc4cccc(S(N)(=O)=O)c4)ncc3F)cccc12` [IX-15, N2-(3-Aminosulfonylphenyl)-N4-(3-cyanomethyl-1H-indol-7-yl)-5-fluoro-2,4-pyrimidinediamine], for which the IC50 was 157 nM.
For `Cc1ccc(Nc2ncc(F)c(Nc3cccc4c(CC#N)c[nH]c34)n2)cc1S(N)(=O)=O` [IX-16, N2-(3-Aminosulfonyl-4-methylphenyl)-N4-(3-cyanomethyl-1H-indol-7-yl)-5-fluoro-2,4-pyrimidinediamine], the IC50 turned out to be 223 nM.
Consider `NS(=O)(=O)c1cccc(Nc2ncc(F)c(Nc3ccc(C(=O)N4CCSCC4)cc3)n2)c1` [IX-34, N2-(3-Aminosulfonylphenyl)-5-fluoro-N4-[4-(4-thiomorpholinyl)carbonylphenyl]-2,4-pyrimidinediamine], for which the IC50 worked out at 576 nM.
To `Cc1ccc(Nc2ncc(F)c(Nc3ccc(C(=O)N4CCSCC4)cc3)n2)cc1S(N)(=O)=O` [IX-35, N2-(3-Aminosulfonyl-4-methylphenyl)-5-fluoro-N4-[4-(4-thiomorpholinyl)carbonylphenyl]-2,4-pyrimidinediamine] belongs 866 nM.
Regarding `COc1cc(Nc2nc(Nc3ccc(C)c(S(N)(=O)=O)c3)ncc2F)ccc1Cl` [VI-5, N2-(3-Aminosulfonyl-4-methylphenyl)-N4-(4-chloro-3-methoxyphenyl)-5-fluoro-2,4-pyrimidinediamine], the IC50 was found to be 718 nM.
Next, `COc1ccc(Nc2nc(Nc3cc(C)c(F)c(S(N)(=O)=O)c3)ncc2F)cc1Cl` [VI-15, N2-(3-Aminosulfonyl-4-fluoro-5-methylphenyl)-N4-(3-chloro-4-methoxyphenyl)-5-fluoro-2,4-pyrimidinediamine]: 469 nM.
With `Cc1cc(Nc2ncc(F)c(Nc3ccc(OC(F)(F)F)c(Cl)c3)n2)cc(S(N)(=O)=O)c1Cl` [VI-18, N2-(3-Aminosulfonyl-4-chloro-5-methylphenyl)-N4-(3-chloro-4-trifluoromethoxyphenyl)-5-fluoro-2,4-pyrimidinediamine], the IC50 worked out at 4370 nM.
To `CNC(=O)OCc1cccc(Nc2nc(Nc3ccc(C)c(S(N)(=O)=O)c3)ncc2F)c1` [VI-49, N2-(3-Aminosulfonyl-4-methylphenyl)-5-fluoro-N4-[3-(methylaminocarbonyloxymethyl)phenyl]-2,4-pyrimidinediamine] belongs 1260 nM; to `Cc1ccc(Nc2ncc(F)c(Nc3ccc(C(F)(F)F)cc3)n2)cc1S(N)(=O)=O` [VI-50, N2-(3-Aminosulfonyl-4-methylphenyl)-5-fluoro-N4-(4-trifluoromethylphenyl)-2,4-pyrimidinediamine], 944 nM; to `NS(=O)(=O)c1cccc(Nc2ncc(F)c(Nc3ccc(C(F)(F)F)cc3)n2)c1` [VI-51, N2-(3-Aminosulfonylphenyl)-5-fluoro-N4-(4-trifluoromethylphenyl)-2,4-pyrimidinediamine], 547 nM.
To `C#CCOc1ccc(Nc2nc(Nc3ccc(Cl)c(S(N)(=O)=O)c3)ncc2F)cc1` [VI-55, N2-(3-Aminosulfonyl-4-chlorophenyl)-5-fluoro-N4-[4-(prop-2-ynyloxy)phenyl]-2,4-pyrimidinediamine] belongs 625 nM.
Take `C#CCOc1ccc(Nc2nc(Nc3ccc(C(C)C)c(S(N)(=O)=O)c3)ncc2F)cc1` [VI-63, N2-[3-Aminosulfonyl-4-(2-propyl)phenyl]-5-fluoro-N4-[4-(prop-2-ynyloxy)phenyl]-2,4-pyrimidinediamine]: the IC50 was found to be 363 nM.
`C#CCOc1ccc(Nc2nc(Nc3ccc(N4CCN(C)CC4)c(S(N)(=O)=O)c3)ncc2F)cc1` [VI-70, N2-[3-Aminosulfonyl-4-(1-methylpiperazin-4-yl)phenyl]-5-fluoro-N4-[4-(prop-2-ynyloxy)phenyl]-2,4-pyrimidinediamine]: the IC50 worked out at 311 nM.
Next, `C#CCOC(=O)NCc1ccc(Nc2nc(Nc3cccc(S(N)(=O)=O)c3)ncc2F)cc1` [VI-74, N2-(3-Aminosulfonylphenyl)-5-fluoro-N4-{4-[(prop-2-ynyloxy)carbonylaminomethyl]phenyl}-2,4-pyrimidinediamine]: 348 nM.
As to `COc1ccc(Nc2nc(Nc3cccc(S(N)(=O)=O)c3)ncc2F)cc1Cl` [VI-107, N2-(3-Aminosulfonylphenyl)-5-fluoro-N4-(4-methoxy-3-chlorophenyl]-2,4-pyrimidinediamine], the IC50 was determined as 74.1 nM.
To `NS(=O)(=O)c1cccc(Nc2ncc(F)c(Nc3ccc(Cl)c(Cl)c3)n2)c1` [VI-110, N2-(3-Aminosulfonylphenyl)-N4-(3,4-dichlorophenyl)-5-fluoro-2,4-pyrimidinediamine] belongs 345 nM; to `Cc1ccc(Nc2ncc(F)c(Nc3ccc(C)c(S(N)(=O)=O)c3)n2)cc1S(N)(=O)=O` [VI-114, N2,N4-Bis-(3-aminosulfonyl-4-methylphenyl)-5-fluoro-2,4-pyrimidinediamine], 2240 nM; to `CN1C(=O)C(C)(C)S(=O)(=O)c2ccc(Nc3nc(Nc4ccc(S(N)(=O)=O)cc4)ncc3F)cc21` [VII-12, N2-(4-Aminosulphonylphenyl)-5-fluoro-N4-(2,2,4-trimethyl-1,1,3-trioxo-benzo[1,4]thiazin-6-yl)-2,4-pyrimidinediamine], 6690 nM.
Consider `Cc1cnc(Nc2ccc(S(N)(=O)=O)cc2)nc1Nc1ccc2c(c1)NC(=O)CO2` [VII-31, N2-(4-Aminosulphonylphenyl)-5-methyl-N4-(3-oxo-benz[1,4]oxazin-6-yl)-2,4-pyrimidinediamine], for which the half-inhibitory concentration (IC50) stood at 174 nM.
Next, `Cc1cnc(Nc2cccc(S(N)(=O)=O)c2)nc1Nc1ccc2c(c1)NC(=O)CO2` [VII-32, N2-(3-Aminosulphonylphenyl)-5-methyl-N4-(3-oxo-benz[1,4]oxazin-6-yl)-2,4-pyrimidinediamine]: 32.1 nM; `Cc1cnc(Nc2cccc(S(N)(=O)=O)c2)nc1Nc1ccc2c(c1)N(C)C(=O)CS2` [VII-35, N2-(3-Aminosulphonylphenyl)-5-methyl-N4-(4-methyl-3-oxo-benzo[1,4]thiazin-6-yl)-2,4-pyrimidinediamine]: 46.1 nM; `CN1C(=O)CSc2ccc(Nc3nc(Nc4ccc(S(N)(=O)=O)cc4)ncc3F)cc21` [VII-48, N2-(4-Aminosulfonylphenyl)-5-fluoro-N4-(4-methyl-3-oxo-benz[1,4]thiazin-6-yl)-2,4-pyrimidinediamine]: 336 nM.
Consider `NC(=O)c1cc2cc(Nc3nc(Nc4cccc(S(N)(=O)=O)c4)ncc3F)ccc2o1` [VII-54, N2-(3-Aminosulfonylphenyl)-N4-(2-aminocarbonylbenzofurane-5-yl)-5-fluoro-2,4-pyrimidinediamine], for which the half-inhibitory concentration (IC50) turned out to be 596 nM.
Regarding `NS(=O)(=O)c1cccc(Nc2ncc(F)c(Nc3ccc4sccc4c3)n2)c1` [VII-58, N2-(3-Aminosulfonylphenyl)-N4-(benzothiophen-5-yl)-5-fluoro-2,4-pyrimidinediamine], the IC50 came to 265 nM.
Next, `Cc1ccc(Nc2ncc(F)c(Nc3cccc4cccnc34)n2)cc1S(N)(=O)=O` [VII-77, N2-(3-Aminosulfonyl-4-methylphenyl)-5-fluoro-N4-(quinolin-8-yl)-2,4-pyrimidinediamine]: 1780 nM.
